Source: patent US6545000B1, “[1,2,4]triazolo[1,5-c]pyrimidine derivatives” (Kyowa Hakko Kogyo Co., Ltd., priority 1998, dated 2003)

Tests used:
Rat A2A receptor = biological target: T1, Rat A2A receptor (Rattus norvegicus, UniProt P30543); experiment: Adenosine A2A receptor binding test (3H-CGS 21680 binding); conditions: rat corpus striatum
T1 construct: from tissue; host or cells: rat corpus striatum membrane preparation
Procedure: The final precipitate was suspended in 50 mmol/L Tris-HCl buffer (containing 10 mmol/L magnesium chloride and 0.02 unit/mg tissue of adenosine deaminase (manufactured by Sigma Co.)) by adding the buffer to the final precipitate so as to give a tissue concentration of 5 mg (wet weight)/mL.
Inhibition ratio (%)={1−(amount of the binding in the presence of the test compound−amount of the non-specific binding)/(amount of the total binding−amount of the non-specific binding)}×100

[1] = tested on: haloperidol-induced catalepsy; experiment: Activity on haloperidol-induced catalepsy; format: in vivo, mouse; conditions: 10 mg/kg oral; for Number of animals showing remission: catalepsy score 4 points or less, out of 10 mice; for Remission ratio (%): percentage reduction of total score vs control group; for Total score: total catalepsy score of 10 mice (maximum 50 points), haloperidol 1.0 mg/kg i.p.
Procedure: Parkinson's disease is a disease based on the degeneration and cell death of the nigrostriatal dopaminergic neuron. When haloperidol (dopamine D2 antagonist) is administered, catalepsy is induced by the block of postsynaptic D2 receptor. This haloperidol-induced catalepsy is known as a classic model in which symptoms of Parkinson's disease are produced by drug administration (European Journal of Pharmacology, 182: 327 (1990) and U.S. Pat. No. 3,991,207).
This test was carried out using 10 animals per group of male ddY mice of 5 week age (22 to 24 g in body weight, Japan SLC). Haloperidol (manufactured by Janssen) was suspended in 0.5% MC and administered intraperitoneally into mice at a dose of 1.0 mg/kg. Each test compound was suspended in distilled water for injection containing 0.5% MC (manufactured by Otsuka Pharmaceutical Co., Ltd.) (10 mg/kg). Also, as a control drug, 100 mg/kg of L-DOPA and 25 mg/kg of benserazide were used as a solution by dissolving them into distilled water for injection containing 0.5% MC (manufactured by Otsuka Pharmaceutical Co., Ltd.) One hour after the intraperitoneal injection of haloperidol, the suspension containing each of the test compounds or the solution containing the control drug was orally administered (0.1 mL per 10 g mouse body weight) and, one hour after the administration of the test compound or the control drug, only forelimbs or only hindlimbs of each animal were laid on a stand having a size of 4.5 cm in height and 1.0 cm in width, to measure catalepsy symptoms. The catalepsy score was evaluated by the judging criteria shown in the above-described Table 3.
(§1) The effect was judged by total catalepsy scores of 10 animals in one group (the maximum score is 50 points). When the total score was 40 points or less, the activity of the test compounds was judged positive. The number of animals showing remission of catalepsy was expressed by the number of cases in which the catalepsy score was 4 points or less in 10 cases. The catalepsy remission ratio was expressed as the percentage reduction of the total score in the test compound-administered group to the total score in the control group.

[2] = tested on: CGS 21680-induced catalepsy; experiment: Activity on CGS 21680-induced catalepsy; format: in vivo, mouse; conditions: 10 mg/kg oral; for inhibition in vivo at 10 mg/kg: Mus musculus, 1 h, percentage reduction of total score vs control group, read-out: Remission ratio (%); for Total score: total catalepsy score of 10 mice (maximum 50 points), 1 hour after administration
Procedure: This test was carried out using 10 animals per group of male ddY mice of 5 week age (22 to 25 g in body weight, Japan SLC). […] One hour after the administration of the test compound, only forelimbs or only hindlimbs of each animal were laid on a vertically arranged stand made of acryl, having a size of 4.5 cm in height and 1.0 cm in width, to measure catalepsy symptoms. All of the test compounds were administered orally in a dose of 10 mg/kg.
as §1, with “points). When total score” for “points). When the total score”, “of the compounds was” for “of the test compounds was”

[3] = tested on: MPTP-treated common marmoset; experiment: Parkinson's disease model (common marmoset treated with MPTP); format: in vivo; conditions: motor disability score (0-17 points), 4 animals
Procedure: This test was carried out using 4 animals per group of female and male common marmosets of 2 to 3 year age (300 to 375 g in body weight, CLEA Japan). MPTP (manufactured by RBI) was dissolved in physiological saline for injection (manufactured by Otsuka Pharmaceutical Co., Ltd.) and administered to common marmoset once a day for 5 days by subcutaneous injection in a dose of 2.0 mg/kg. Six weeks or more after the administration, animals showing chronic symptoms of Parkinson's disease were used in the test. Each test compound was used by suspending it in 0.3% Tween 80 and 10% sucrose solution. One hour before the administration of the test compound, the animals to be tested were put into an observation cage (equipped with a spontaneous locomotor count measuring apparatus) to adapt them to the environment. Pre-motor disability before administration of the test compound was scored, and was compared with the motor disability score after administration of the test compound. Symptoms of Parkinson's disease were observed from a one way see through window at 30 minutes' interval for 8 hours to score their motor disability. The spontaneous locomotor count was measured at 30 minutes' interval for 12 hours by a computer-controlled automatic measuring apparatus. […]

[4] = tested on: reserpine-induced catalepsy; experiment: Activity on reserpine-induced catalepsy; format: in vivo, mouse; conditions: oral; for Remission ratio (%): percentage reduction of total score vs control group; for Total score: total catalepsy score of 10 mice (maximum 50 points), reserpine 5 mg/kg s.c., 1 hour after administration
Procedure: This test was carried out using 10 animals per group of male ddY mice of 5 week age (22 to 24 g in body weight, Japan SLC). […] Reserpine (5 mg/kg: apoplon, Daiichi Pharmaceutical Co., Ltd.; diluted with distilled water) was subcutaneously administered, and catalepsy-inducing activity was observed from 18 hours after the administration. […] Each test compound was suspended in distilled water for injection containing 0.5% MC (manufactured by Otsuka Pharmaceutical Co., Ltd.) The suspension containing each of the test compounds or a solution containing no test compound (distilled water for injection containing 0.5% MC (manufactured by Otsuka Pharmaceutical Co., Ltd.); control) was orally administered (0.1 mL per 10 g mouse body weight) and, one hour after the administration of test compound, only forelimbs or only hindlimbs of each animal were laid on a stand having a size of 4.5 cm in height and 1.0 cm in width, to measure catalepsy symptoms.
as §1, with “maximum” for “maximum score”, “compound” for “compounds”

ddY male mice = experiment: Forced swimming method (measurement of immobility time); format: in vivo, mouse; conditions: oral, one hour before the test; 4 minutes (240 seconds) measurement; 10 mice
Procedure: Ten animals per group of ddY male mice (21 to 26 g in body weight, Japan SLC) were used as the test animal. During the preliminary feeding period, they were allowed to have feed and water freely in an animal room of a room temperature of 23±1° C. and a humidity of 55±5%. Animals showing abnormal reactions in terms of spontaneous activity, myotonia, eyesight or the like were excluded beforehand. The test compound was suspended in a 0.3% Tween 80 solution and orally administered one hour before the test. In the negative control group, 10 mL/kg of a 0.3% Tween 80 solution alone was orally administered. Measurement of immobility time was carried out in accordance with the method of Porsolt (Arch. int Pharmacodyn., 229: 327-336 (1977)). That is, a cylindrical transparent acrylic water tank (10 cm in diameter and 25 cm in height) was filled with 9 cm in depth of water having a temperature of 23±1° C., and mice were forced to swim for 6 minutes. When mice are put into water, they immediately start to swim trying to escape from the tank, but the motion gradually decreases 1 to 2 minutes thereafter. […] In order to reduce effects of daily rhythm, the test was carried out by using 5 of the 10 animals per group in the morning, and the remaining 5 animals in the afternoon. […]

T1 sequence (P30543 whole entry): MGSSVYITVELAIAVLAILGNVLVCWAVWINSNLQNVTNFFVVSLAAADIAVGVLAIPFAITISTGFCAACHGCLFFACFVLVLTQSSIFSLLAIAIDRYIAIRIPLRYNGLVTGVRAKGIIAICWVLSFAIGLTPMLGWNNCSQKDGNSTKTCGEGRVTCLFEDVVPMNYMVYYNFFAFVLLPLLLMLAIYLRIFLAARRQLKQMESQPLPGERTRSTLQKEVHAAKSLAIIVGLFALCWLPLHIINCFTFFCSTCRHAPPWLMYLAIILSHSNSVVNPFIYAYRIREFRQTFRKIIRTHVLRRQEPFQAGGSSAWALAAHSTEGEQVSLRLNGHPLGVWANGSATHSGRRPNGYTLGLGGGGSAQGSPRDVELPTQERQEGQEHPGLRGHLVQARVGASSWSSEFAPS

Row | Compound | Rat A2A receptor inhibition ratio (%) (Rat A2A receptor; 10^−6 mol/L test compound) | Rat A2A receptor inhibition ratio (%) (Rat A2A receptor; 10^−7 mol/L test compound) | Number of animals showing remission [1] | Remission ratio (%) [1] [%] | Total score [1] | inhibition in vivo at 10 mg/kg [2] [%] | Total score [2] | Average score at maximum improvement after administration ([3]; after administration) | Average score before administration ([3]; before administration of the test compound) | Remission ratio (%) [4] [%] | Total score [4] | Immobility time (second) (ddY male mice)
1 | CC(C)(O)CN1CCN(c2cc3nc(-c4ccco4)nn3c(N)n2)CC1 [Compound 1, 5-Amino-2-(2-furyl)-7-(4-(2-hydroxy-2-methylpropyl)piperazinyl)[1,2,4]triazolo[1,5-c]pyrimidine] | 81 | 42 | 10 | 100 | 0 | 100 | 0 | 4.75 ± 0.48 (p < 0.0256) | 12.75 ± 0.25 | 72 | 14 | –
2 | Cc1cc(CN2CCN(c3cc4nc(-c5ccco5)nn4c(N)n3)CC2)no1 [Compound 21, 5-Amino-2-(2-furyl)-7-(4-(5-methylisoxazol-3-ylmethyl)piperazinyl)[1,2,4]triazolo[1,5-c]pyrimidine] | 90 | 65 | 10 | 100 | 0 | 100 | 0 | – | – | 66 | 17 | 7.6 ± 3.2 (p < 0.01) second
